The source of these data is patent EP0908457B1, “3-(1,2-benzisothiazol- and isoxazol-5-Y1)-2,4(1H,3H)-pyrimidinedione or thione and 3-(1,2-benzisothiazol- and isoxazol-5-y1)-4(3H)-pyrimidinone or thione herbicidal agents” (BASF AKTIENGESELLSCHAFT, priority 1997, dated 1999).

One data set relates to Cyperus iria. The data set is described as follows: Preemergence weed control under flooded paddy conditions, CYPIR (Rice Flatsedge). For herbicidal effect rating, CYPIR: meaning of each grade not given here. Conditions: flooded paddy; for CYPIR: herbicidal effect rating 0-9, three to four weeks after treatment; for herbicidal effect rating, CYPIR / CYPIR herbicidal effect rating: rated three to four weeks after treatment. Type of data set: in vivo.

For data set [1], the system named is Oryza sativa, (L.) Tebonnet. The data set is described as follows: Rice tolerance to post-transplant applications under flooded paddy conditions (Example 187), ORYSAT (Rice, Tebonnet). Conditions: for ORYSAT: herbicidal effect rating 0-9, three to four weeks after treatment; for herbicidal effect rating, ORYSAT (rice tolerance) / ORYSAT herbicidal effect rating: rated three to four weeks after treatment.

Data set [2] concerns Cyperus serotinus, Rottb. The data set is described as follows: Preemergence weed control under flooded paddy conditions, CYPSE (Flatsedge). For herbicidal effect rating, CYPSE: meaning of each grade not given here. It counts as in vivo. As to conditions: for CYPSE: herbicidal effect rating 0-9, three to four weeks after treatment; for herbicidal effect rating, CYPSE / CYPSE herbicidal effect rating: rated three to four weeks after treatment.
Data set [3] relates to Monochoria vaginalis, Presl. As to the kind of experiment: Preemergence weed control under flooded paddy conditions, MOOVA (Monochoria). For herbicidal effect rating, MOOVA: meaning of each grade not given here. As to conditions: flooded paddy; for MOOVA: herbicidal effect rating 0-9, three to four weeks after treatment; for herbicidal effect rating, MOOVA / MOOVA herbicidal effect rating: rated three to four weeks after treatment. Type of data set: in vivo.

Another data set has as its system Sagittaria pygmaea, L. The data set is described as follows: Preemergence weed control under flooded paddy conditions, SAGPY (Arrowhead (Pygmaea)). For herbicidal effect rating, SAGPY: meaning of each grade not given here. Type of data set: in vivo. As to conditions: flooded paddy; for SAGPY: herbicidal effect rating 0-9, three to four weeks after treatment; for herbicidal effect rating, SAGPY / SAGPY herbicidal effect rating: rated three to four weeks after treatment.

Data set [4] concerns Echinochloa oryzoides (Ard.) Fritsch. As to the kind of experiment: Preemergence weed control under flooded paddy conditions, ECHORC (Watergrass (Calif.)). For herbicidal effect rating, ECHORC: meaning of each grade not given here. Type of data set: in vivo. As to conditions: flooded paddy; for ECHORC: herbicidal effect rating 0-9, three to four weeks after treatment; for herbicidal effect rating, ECHORC / ECHORC herbicidal effect rating: rated three to four weeks after treatment.

The mark [5] stands for this setting: 0.0320 kg/ha, preemergence weeds.
Where [6] appears, read: 0.0620 kg/ha, preemergence weeds.
Setting [7] is: 0.1250 kg/ha, preemergence weeds.
Where [8] appears, read: 0.2500 kg/ha, preemergence weeds.
The mark [9] stands for this setting: 0.0313 kg/ha, preemergence weeds.
The mark [10] stands for this setting: 0.0625 kg/ha, preemergence weeds.
Setting [11] is: Rate 0.0313 kg/ha, preemergence.
The mark [12] stands for this setting: Rate 0.0625 kg/ha, preemergence.
Where [13] appears, read: Rate 0.1250 kg/ha, preemergence.
[14] abbreviates: Rate 0.2500 kg/ha, preemergence.

On to `COC(=O)C(C)Oc1cc2c(cc1-c1nsc3ccc(-n4c(=O)cc(C(F)(F)F)n(C)c4=O)cc13)CCC2` (stereo not shown) [Example 435, Propionic acid, 2-{{6-{5-[3,6-dihydro-3-methyl-2,6-dioxo-4-(trifluoromethyl)-1(2H)-pyrimidinyl]-1,2-benzisothiazol-3-yl}-5-indanyl}oxy}-, methyl ester], for which the CYPIR with Cyperus iria (setting [5]) was found to be 0.0; with Cyperus iria (setting [6]), 0.0; with Cyperus iria (setting [7]) it was 2.0; in the data set with Cyperus iria (setting [8]) it was 3.0. Besides, the ORYSAT in data set [1] (0.0320 kg/ha) was 2.0; in data set [1] (0.0620 kg/ha) it was 1.0; in data set [1] (0.1250 kg/ha) it was 2.0; in data set [1] (0.2500 kg/ha), 2.0. For the same molecule, the CYPSE turned out to be 0.0 in data set [2] (setting [6]), 3.0 in data set [2] (setting [7]) and 2.0 in data set [2] (setting [8]). Further, the MOOVA in data set [3] (setting [5]), in data set [3] (setting [6]), in data set [3] (setting [7]) and in data set [3] (setting [8]) was 9.0 throughout. Also, the SAGPY with Sagittaria pygmaea, L. (setting [5]) worked out at 0.0; with Sagittaria pygmaea, L. (setting [6]), 0.0; with Sagittaria pygmaea, L. (setting [7]), 0.0; with Sagittaria pygmaea, L. (setting [8]) it was 6.0. Besides, the ECHORC is 5.0 in data set [4] (setting [5]), 7.0 in data set [4] (setting [6]), 7.0 in data set [4] (setting [7]) and 9.0 in data set [4] (setting [8]).
Regarding `Cc1ccc(S(=O)(=O)NC(=O)COc2ccc(C)cc2-c2nsc3ccc(-n4c(=O)cc(C(F)(F)F)n(C)c4=O)cc23)cc1` [Example 122, N-{{{2-{5-[3,6-Dihydro-3-methyl-2,6-dioxo-4-(trifluoromethyl)-1(2H)-pyrimidinyl]-1,2-benzisothiazol-3-yl}-p-tolyl}oxy}acetyl}-p-toluenesulfonamide], the “herbicidal effect rating, CYPIR” value in the data set with Cyperus iria (setting [9]), with Cyperus iria (setting [10]), with Cyperus iria (setting [7]) and in the data set with Cyperus iria (setting [8]) was 0.0 throughout. The “herbicidal effect rating, ORYSAT (rice tolerance)” value (“herbicidal effect rating, ORYSAT” for short) in data set [1] (0.0313 kg/ha) turned out to be 2.0; in data set [1] (0.0625 kg/ha) it was 3.0; in data set [1] (0.1250 kg/ha) it was 4.0; in data set [1] (0.2500 kg/ha), 4.0. Besides, the “herbicidal effect rating, CYPSE” value in data set [2] (setting [9]), in data set [2] (setting [10]), in data set [2] (setting [7]) and in data set [2] (setting [8]) was 0.0 throughout. Besides, the “herbicidal effect rating, MOOVA” value in data set [3] (setting [9]) stood at 6.0; in data set [3] (setting [10]) it was 8.0; in data set [3] (setting [7]) it was 9.0; in data set [3] (setting [8]), 9.0. Further, the “herbicidal effect rating, SAGPY” value with Sagittaria pygmaea, L. (setting [9]) is reported as 0.0; in the data set on Sagittaria pygmaea, L. (setting [10]), 0.0; with Sagittaria pygmaea, L. (setting [7]) it was 0.0; in the data set with Sagittaria pygmaea, L. (setting [8]), 0.0. The “herbicidal effect rating, ECHORC” value in data set [4] (setting [9]) is recorded as 4.0; in data set [4] (setting [10]) it was 7.0; in data set [4] (setting [7]) it was 8.0; in data set [4] (setting [8]) it was 9.0.
As to `CCOc1nc(C(F)(F)F)cc(=O)n1-c1ccc2snc(-c3cc(C)ccc3OCC(=O)OC)c2c1` [Example 246, Methyl {{2-{5-[2-ethoxy-6-oxo-4-(trifluoromethyl)-1(6H)-pyrimidinyl]-1,2-benzisothiazol-3-yl}-p-tolyl}oxy}acetate], the “CYPIR herbicidal effect rating” value with Cyperus iria (setting [11]) was found to be 0.0; in the data set with Cyperus iria (setting [12]), 2.0; with Cyperus iria (setting [13]), 4.0; with Cyperus iria (setting [14]), 4.0. Also, the “ORYSAT herbicidal effect rating” value in data set [1] (Rate 0.0313 kg/ha) is recorded as 0.0; in data set [1] (Rate 0.0625 kg/ha), 1.0; in data set [1] (Rate 0.1250 kg/ha), 2.0; in data set [1] (Rate 0.2500 kg/ha) it was 2.0. Further, the “CYPSE herbicidal effect rating” value in data set [2] (setting [11]), in data set [2] (setting [12]) and in data set [2] (setting [13]) was 0.0 in each case. Also, the “MOOVA herbicidal effect rating” value in data set [3] (setting [11]), in data set [3] (setting [12]), in data set [3] (setting [13]) and in data set [3] (setting [14]) was 9.0 throughout. For the same molecule, the “SAGPY herbicidal effect rating” value with Sagittaria pygmaea, L. (setting [11]) is 0.0; in the data set with Sagittaria pygmaea, L. (setting [12]), 0.0; with Sagittaria pygmaea, L. (setting [13]), 2.0; in the data set with Sagittaria pygmaea, L. (setting [14]) it was 2.0. Moreover, the “ECHORC herbicidal effect rating” value in data set [4] (setting [11]) stood at 6.0; in data set [4] (setting [12]) it was 7.0; in data set [4] (setting [13]), 9.0; in data set [4] (setting [14]) it was 9.0.
Take `CCN(CC)C(=O)COc1ccc(C)cc1-c1nsc2ccc(-n3c(=O)cc(C(F)(F)F)n(C)c3=O)cc12` [Example 60, 3-{3-{6-[(Diethylcarbamoyl)methoxy]-m-tolyl}-1,2-benzisothiazol-5-yl}-1-methyl-6-(trifluoromethyl)-2,4(1H,3H)-pyrimidinedione]: the “herbicidal effect rating, CYPIR” value in the data set with Cyperus iria (0.0313 kg/ha, preemergence) is listed as 0.0; in the data set on Cyperus iria (0.0625 kg/ha, preemergence), 0.0; in the data set on Cyperus iria (0.1250 kg/ha, preemergence) it was 0.0; in the data set on Cyperus iria (0.2500 kg/ha, preemergence), 0.0. For the same molecule, the “herbicidal effect rating, ORYSAT” value in data set [1] (0.0313 kg/ha), in data set [1] (0.0625 kg/ha), in data set [1] (0.1250 kg/ha) and in data set [1] (0.2500 kg/ha) was 0.0 in each case. Further, the “herbicidal effect rating, CYPSE” value in data set [2] (0.0313 kg/ha, preemergence) is 0.0; in data set [2] (0.0625 kg/ha, preemergence) it was 0.0; in data set [2] (0.1250 kg/ha, preemergence) it was 0.0; in data set [2] (0.2500 kg/ha, preemergence) it was 0.0. Further, the “herbicidal effect rating, MOOVA” value amounted to 9.0 in data set [3] (0.0313 kg/ha, preemergence); 9.0 in data set [3] (0.0625 kg/ha, preemergence); 9.0 in data set [3] (0.1250 kg/ha, preemergence); 9.0 in data set [3] (0.2500 kg/ha, preemergence). Moreover, the “herbicidal effect rating, SAGPY” value in the data set on Sagittaria pygmaea, L. (0.0313 kg/ha, preemergence) worked out at 0.0; with Sagittaria pygmaea, L. (0.0625 kg/ha, preemergence) it was 0.0; in the data set with Sagittaria pygmaea, L. (0.1250 kg/ha, preemergence), 0.0; in the data set with Sagittaria pygmaea, L. (0.2500 kg/ha, preemergence) it was 0.0. For the same molecule, the “herbicidal effect rating, ECHORC” value in data set [4] (0.0313 kg/ha, preemergence) is recorded as 2.0; in data set [4] (0.0625 kg/ha, preemergence), 4.0; in data set [4] (0.1250 kg/ha, preemergence) it was 8.0; in data set [4] (0.2500 kg/ha, preemergence), 9.0.
With `COC(=O)C(C)Oc1ccc(C)cc1-c1nsc2ccc(-n3c(=S)cc(C(F)(F)F)n(C)c3=O)cc12` (stereo not shown) [Example 33, Methyl 2-{{2-{5-[3,6-dihydro-3-methyl-2-oxo-6-thioxo-4-(trifluoromethyl)-1(2H)-pyrimidinyl]-1,2-benzisothiazol-3-yl}-p-tolyl}oxy}propionate], the “herbicidal effect rating, CYPIR” value in the data set with Cyperus iria (0.0313 kg/ha, preemergence) came out at 0.0; in the data set on Cyperus iria (0.0625 kg/ha, preemergence), 0.0; with Cyperus iria (0.1250 kg/ha, preemergence), 2.0; in the data set with Cyperus iria (0.2500 kg/ha, preemergence), 4.0. The “herbicidal effect rating, ORYSAT” value is 2.0 in data set [1] (0.0313 kg/ha), 3.0 in data set [1] (0.0625 kg/ha), 3.0 in data set [1] (0.1250 kg/ha) and 3.5 in data set [1] (0.2500 kg/ha). For the same molecule, the “herbicidal effect rating, CYPSE” value in data set [2] (0.0313 kg/ha, preemergence) is listed as 0.0; in data set [2] (0.0625 kg/ha, preemergence) it was 0.0; in data set [2] (0.1250 kg/ha, preemergence), 0.0; in data set [2] (0.2500 kg/ha, preemergence), 0.0. Besides, the “herbicidal effect rating, MOOVA” value in data set [3] (0.0313 kg/ha, preemergence) is 9.0; in data set [3] (0.0625 kg/ha, preemergence) it was 9.0; in data set [3] (0.1250 kg/ha, preemergence) it was 9.0; in data set [3] (0.2500 kg/ha, preemergence), 9.0. Besides, the “herbicidal effect rating, SAGPY” value worked out at 0.0 in the data set with Sagittaria pygmaea, L. (0.0313 kg/ha, preemergence); 0.0 in the data set on Sagittaria pygmaea, L. (0.0625 kg/ha, preemergence); 0.0 in the data set with Sagittaria pygmaea, L. (0.1250 kg/ha, preemergence); 0.0 with Sagittaria pygmaea, L. (0.2500 kg/ha, preemergence). Also, the “herbicidal effect rating, ECHORC” value in data set [4] (0.0313 kg/ha, preemergence) was 7.5; in data set [4] (0.0625 kg/ha, preemergence), 8.5; in data set [4] (0.1250 kg/ha, preemergence), 9.0; in data set [4] (0.2500 kg/ha, preemergence) it was 9.0.
